Test results as given in patent US20090076047A1, “2-Substituted Hydroxylaminopyrimidine, Method for the Production and the Use Thereof in the Form of Pesticides” (priority 2005, published 2009).

Legend:
[1] = tested on: Pyricularia oryzae; type: cell-based; conditions: 125 ppm, day 7 after inoculation, absorption at 405 nm; active compound-free control = 100%
[2] = tested on: Septoria tritici; assay: Microtest No. 1: activity against the Septoria leaf spot pathogen Septoria tritici in the microtiter test; type: cell-based; conditions: 125 ppm, day 7 after inoculation, absorption at 405 nm; active compound-free control = 100%
Experimental: Microtest No. 1—Activity Against the Septoria Leaf Spot Pathogen Septoria tritici in the Microtiter Test The stock solution was pipetted into a microtiter plate (MTP) and diluted with an aqueous malt-based fungus nutrient medium to the stated active compound concentration. An aqueous spore suspension of Septoria tritici was then added. The plates were placed in a water vapor-saturated chamber at temperatures of 18° C. On day 7 after the inoculation, the MTPs were measured in an absorption photometer at 405 nm. The measured parameters were compared to the growth of the active compound-free control variant (100%) and the fungus- and active compound-free blank value to determine the relative growth in % of the pathogens in the individual active compounds.

[3] = tested on: Puccinia recondita; assay: Curative activity against brown rust of wheat caused by Puccinia recondita (greenhouse); type: in vivo; conditions: 63 ppm, wheat sprayed 1 day after inoculation (curative), 7 days; untreated control 90% infected
Experimental: The solution was then made up to 100 ml with water. This stock solution was diluted to the active compound concentration stated below using the solvent/emulsifier/water mixture described. Curative Activity Against Brown Rust of Wheat Caused by Puccinia recondita Leaves of potted wheat seedlings of the cultivar “Kanzler” were inoculated with a spore suspension of brown rust (Puccinia recondita). The pots were then placed into a chamber with high atmospheric humidity (90-95%) at 20-22° C. for 24 hours. During this time, the spores germinated and the germ tubes penetrated into the leaf tissue. The next day, the infected plants were sprayed to runoff point with the active compound solution described above having the concentration of active compound stated below. After the spray coating had dried on, the test plants were cultivated in a greenhouse at temperatures between 20 and 22° C. and at 65 to 70% relative atmospheric humidity for 7 days. The extent of the rust fungus development on the leaves was then determined.

[4] = tested on: Erysiphe [syn. Blumeria] graminis forma specialis. tritici; assay: Activity against mildew of wheat caused by Erysiphe [syn. Blumeria] graminis forma specialis tritici (greenhouse); type: in vivo, Erysiphe graminis f. sp. tritici; conditions: 250 ppm, wheat seedlings, protective, assessed after 7 days, % of total leaf area; control 90% infected

CONC(=N)c1nc(Cl)c(-c2c(F)cc(F)cc2F)c(N2CCCO2)n1 [Compound 17, N-Methoxy-4-chloro-6-(isoxazolidin-2-yl)-5-(2,4,6-trifluorophenyl)-2-pyrimidinecarboximidamide]
melting point: 192 to 193 °C

CC1CCCN(c2nc(-n3cncn3)nc(Cl)c2-c2c(F)cc(F)cc2F)O1 (centres unmarked) [Compound 21, 4-Chloro-6-(6-methyltetrahydro-2H-(1,2)-oxazin-2-yl)-2-(1,2,4-triazol-1-yl)-5-(2,4,6-trifluorophenyl)pyrimidine]
melting point: 141 to 143 °C

CON(c1nc(C#N)nc(Cl)c1-c1c(F)cccc1Cl)C(C)C [Compound 32]
relative growth [1]: 0%
relative growth [2]: 0%

CON=C(N)c1nc(Cl)c(-c2c(F)cccc2Cl)c(N(CC2CC2)OC)n1 [Compound 33]
infection [3]: 0%

CON(CC1CC1)c1nc(C#N)nc(Cl)c1-c1c(F)cccc1F [Compound 35]
infection [4]: 5%

COc1nc(Cl)c(-c2c(F)cc(F)cc2F)c(N(CC2CC2)OC)n1 [Compound 40]
relative growth [1]: 0%
relative growth [2]: 0%
